From PubChem BioAssay AID1918940 (Molecular Pharmacology Branch, DTP, NCI, 2023)
pIC50: −log10 of the molar value.

Test system: NCI-H211 complex spheroid viability
Assay: Anticancer human tumor NCI-H211 cell line growth inhibition [LSD1];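 note: luminescent viability read after seven days of drug exposure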;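 for viability, T/C: 100% = DMSO vehicle control viability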
Conditions: for pIC50: curve of first compound; for viability, T/C: stronger effect = lower value; active = viability on the fitted dose curve at most 10% of control; inactive = the rest
Outline: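 Complex spheroids of tumor cells with HUVEC and human MSCs, exposed to iadademstat combined with other agents. Each agent tested in half-log steps from near clinical Cmax (else 10 microM top), DMSO ≤0.25%.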

[1] = second compound 0.1 µM, first compound 0.000316 µM
[2] = second compound 0.1 µM, first compound 0.001 µM
[3] = second compound 0.1 µM, first compound 0.00316 µM
[4] = second compound 0.1 µM, first compound 0.01 µM
[5] = second compound 0.1 µM, first compound 0.0316 µM
[6] = second compound 0.1 µM, first compound 0.1 µM
[7] = second compound 0.316 µM, first compound 0.000316 µM
[8] = second compound 0.316 µM, first compound 0.001 µM
[9] = second compound 0.316 µM, first compound 0.00316 µM
[10] = second compound 0.316 µM, first compound 0.01 µM
[11] = second compound 0.316 µM, first compound 0.0316 µM
[12] = second compound 0.316 µM, first compound 0.1 µM
[13] = second compound 1 µM, first compound 0.000316 µM
[14] = second compound 1 µM, first compound 0.001 µM
[15] = second compound 1 µM, first compound 0.00316 µM
[16] = second compound 1 µM, first compound 0.01 µM
[17] = second compound 1 µM, first compound 0.0316 µM
[18] = second compound 1 µM, first compound 0.1 µM
[19] = second compound 3.16 µM, first compound 0.000316 µM
[20] = second compound 3.16 µM, first compound 0.001 µM
[21] = second compound 3.16 µM, first compound 0.00316 µM
[22] = second compound 3.16 µM, first compound 0.01 µM
[23] = second compound 3.16 µM, first compound 0.0316 µM
[24] = second compound 3.16 µM, first compound 0.1 µM
[25] = second compound 10 µM, first compound 0.000316 µM
[26] = second compound 10 µM, first compound 0.001 µM
[27] = second compound 10 µM, first compound 0.00316 µM
[28] = second compound 10 µM, first compound 0.01 µM
[29] = second compound 10 µM, first compound 0.0316 µM
[30] = second compound 10 µM, first compound 0.1 µM
[31] = second compound 0.1 µM, first compound 0.00949 µM
[32] = second compound 0.1 µM, first compound 0.03 µM
[33] = second compound 0.1 µM, first compound 0.0949 µM
[34] = second compound 0.1 µM, first compound 0.3 µM
[35] = second compound 0.1 µM, first compound 0.949 µM
[36] = second compound 0.1 µM, first compound 3 µM
[37] = second compound 0.316 µM, first compound 0.00949 µM
[38] = second compound 0.316 µM, first compound 0.03 µM
[39] = second compound 0.316 µM, first compound 0.0949 µM
[40] = second compound 0.316 µM, first compound 0.3 µM
[41] = second compound 0.316 µM, first compound 0.949 µM
[42] = second compound 0.316 µM, first compound 3 µM
[43] = second compound 1 µM, first compound 0.00949 µM
[44] = second compound 1 µM, first compound 0.03 µM
[45] = second compound 1 µM, first compound 0.0949 µM
[46] = second compound 1 µM, first compound 0.3 µM
[47] = second compound 1 µM, first compound 0.949 µM
[48] = second compound 1 µM, first compound 3 µM
[49] = second compound 3.16 µM, first compound 0.00949 µM
[50] = second compound 3.16 µM, first compound 0.03 µM
[51] = second compound 3.16 µM, first compound 0.0949 µM
[52] = second compound 3.16 µM, first compound 0.3 µM
[53] = second compound 3.16 µM, first compound 0.949 µM
[54] = second compound 3.16 µM, first compound 3 µM
[55] = second compound 10 µM, first compound 0.00949 µM
[56] = second compound 10 µM, first compound 0.03 µM
[57] = second compound 10 µM, first compound 0.0949 µM
[58] = second compound 10 µM, first compound 0.3 µM
[59] = second compound 10 µM, first compound 0.949 µM
[60] = second compound 10 µM, first compound 3 µM

CC(C)CC(NC(=O)C(Cc1ccccc1)NC(=O)c1cnccn1)B(O)O (stereo not given) + NC1CCC(NC2CC2c2ccccc2)CC1
8.70: pIC50 (second compound 0.1 µM)
active: viability, T/C [4] 2.16% | viability, T/C [5] 3.13% | viability, T/C [6] 6.8% | viability, T/C [10] 1.76% | viability, T/C [11] 0.22% | viability, T/C [12] 0.13% | viability, T/C [16] 1.57% | viability, T/C [17] 0.23% | viability, T/C [18] 2.46% | viability, T/C [22] 1.43% | viability, T/C [23] 0.97% | viability, T/C [24] 0.14% | viability, T/C [28] 0.55% | viability, T/C [29] 0.17% | viability, T/C [30] 0.14%
8.69: pIC50 (second compound 0.316 µM)
8.75: pIC50 (second compound 1 µM)
8.77: pIC50 (second compound 3.16 µM)
> 9.50: pIC50 (second compound 10 µM)
inactive: viability, T/C [1] 73.8% | viability, T/C [2] 88.6% | viability, T/C [3] 29.3% | viability, T/C [7] 70.9% | viability, T/C [8] 76% | viability, T/C [9] 35.8% | viability, T/C [13] 62.5% | viability, T/C [14] 72.7% | viability, T/C [15] 32.7% | viability, T/C [19] 64.3% | viability, T/C [20] 72.3% | viability, T/C [21] 27.4% | viability, T/C [25] 44.9% | viability, T/C [26] 45.3% | viability, T/C [27] 14.2%

CC(C)CC(NC(=O)CNC(=O)c1cc(Cl)ccc1Cl)B1OC(=O)CC(CC(=O)O)(C(=O)O)O1 (stereo not given) + NC1CCC(NC2CC2c2ccccc2)CC1
7.74: pIC50 (second compound 0.316 µM)
7.93: pIC50 (second compound 3.16 µM)
active: viability, T/C [6] 7.53% | viability, T/C [12] 7.18% | viability, T/C [18] 6.25% | viability, T/C [24] 5.75% | viability, T/C [30] 2.35%
7.81: pIC50 (second compound 0.1 µM)
7.82: pIC50 (second compound 1 µM)
inactive: viability, T/C [1] 81.6% | viability, T/C [2] 90.2% | viability, T/C [3] 103% | viability, T/C [4] 65.1% | viability, T/C [5] 22.5% | viability, T/C [7] 81.5% | viability, T/C [8] 93.3% | viability, T/C [9] 111% | viability, T/C [10] 76.9% | viability, T/C [11] 23.5% | viability, T/C [13] 79.3% | viability, T/C [14] 85% | viability, T/C [15] 109% | viability, T/C [16] 65.3% | viability, T/C [17] 21.4% | viability, T/C [19] 59.8% | viability, T/C [20] 65% | viability, T/C [21] 95.6% | viability, T/C [22] 53% | viability, T/C [23] 18.1% | viability, T/C [25] 44.9% | viability, T/C [26] 37.5% | viability, T/C [27] 51.2% | viability, T/C [28] 35.5% | viability, T/C [29] 12%
> 9.50: pIC50 (second compound 10 µM)

COc1cc(Nc2ncc3c(n2)-c2ccc(Cl)cc2C(c2c(F)cccc2OC)=NC3)ccc1C(=O)O + NC1CCC(NC2CC2c2ccccc2)CC1
inactive: viability, T/C [3] 34% | viability, T/C [9] 34.6% | viability, T/C [15] 47.9% | viability, T/C [21] 31.8% | viability, T/C [27] 22.4%
> 8.50: pIC50 (second compound 0.1 µM) | pIC50 (second compound 0.316 µM) | pIC50 (second compound 1 µM) | pIC50 (second compound 3.16 µM) | pIC50 (second compound 10 µM)
active: viability, T/C [4] 8.09% | viability, T/C [5] 2.59% | viability, T/C [6] 2.93% | viability, T/C (second compound 0.1 µM, first compound 0.316 µM) 2.92% | viability, T/C (second compound 0.1 µM, first compound 1 µM) 2.47% | viability, T/C [10] 4.21% | viability, T/C [11] 3.27% | viability, T/C [12] 2.5% | viability, T/C (second compound 0.316 µM, first compound 0.316 µM) 2.51% | viability, T/C (second compound 0.316 µM, first compound 1 µM) 2.35% | viability, T/C [16] 5.71% | viability, T/C [17] 3.16% | viability, T/C [18] 6.76% | viability, T/C (second compound 1 µM, first compound 0.316 µM) 2.71% | viability, T/C (second compound 1 µM, first compound 1 µM) 1.94% | viability, T/C [22] 4.91% | viability, T/C [23] 2.4% | viability, T/C [24] 2.55% | viability, T/C (second compound 3.16 µM, first compound 0.316 µM) 1.47% | viability, T/C (second compound 3.16 µM, first compound 1 µM) 2.19% | viability, T/C [28] 2.05% | viability, T/C [29] 1.29% | viability, T/C [30] 1.19% | viability, T/C (second compound 10 µM, first compound 0.316 µM) 1.28% | viability, T/C (second compound 10 µM, first compound 1 µM) 1.12%

Cn1ncnc1C1c2n[nH]c(=O)c3cc(F)cc(c23)NC1c1ccc(F)cc1 (stereo not given) + NC1CCC(NC2CC2c2ccccc2)CC1
8.77: pIC50 (second compound 0.316 µM)
8.91: pIC50 (second compound 3.16 µM)
inactive: viability, T/C [1] 69.9% | viability, T/C [2] 61.4% | viability, T/C [3] 39.8% | viability, T/C [7] 67% | viability, T/C [8] 66.3% | viability, T/C [9] 30.7% | viability, T/C [13] 59% | viability, T/C [14] 59.9% | viability, T/C [15] 35.7% | viability, T/C [19] 54.7% | viability, T/C [20] 53.5% | viability, T/C [21] 33.7% | viability, T/C [25] 33.6% | viability, T/C [26] 31.5% | viability, T/C [27] 16%
active: viability, T/C [4] 4.59% | viability, T/C [5] 1.93% | viability, T/C [6] 2.12% | viability, T/C [10] 4.65% | viability, T/C [11] 2.59% | viability, T/C [12] 2.43% | viability, T/C [16] 4.84% | viability, T/C [17] 2.31% | viability, T/C [18] 2.49% | viability, T/C [22] 3.84% | viability, T/C [23] 2.11% | viability, T/C [24] 2.23% | viability, T/C [28] 1.98% | viability, T/C [29] 0.92% | viability, T/C [30] 1.15%
8.81: pIC50 (second compound 1 µM)
8.72: pIC50 (second compound 0.1 µM)
> 9.50: pIC50 (second compound 10 µM)

NS(=O)(=O)OCC1CC(n2ccc3c(NC4CCc5ccccc54)ncnc32)CC1O (stereo not given) + NC1CCC(NC2CC2c2ccccc2)CC1
> 8.02: pIC50 (second compound 0.1 µM) | pIC50 (second compound 0.316 µM) | pIC50 (second compound 1 µM) | pIC50 (second compound 3.16 µM) | pIC50 (second compound 10 µM)
inactive: viability, T/C [31] 17.3% | viability, T/C [37] 16.2% | viability, T/C [43] 15.2% | viability, T/C [49] 11.4%
active: viability, T/C [32] 8.79% | viability, T/C [33] 2.05% | viability, T/C [34] 4.77% | viability, T/C [35] 0.6% | viability, T/C [36] 0.42% | viability, T/C [38] 7.48% | viability, T/C [39] 2.74% | viability, T/C [40] 0.89% | viability, T/C [41] 0.5% | viability, T/C [42] 0.48% | viability, T/C [44] 7.52% | viability, T/C [45] 2.66% | viability, T/C [46] 1.51% | viability, T/C [47] 5.93% | viability, T/C [48] 0.59% | viability, T/C [50] 6.38% | viability, T/C [51] 1.67% | viability, T/C [52] 0.54% | viability, T/C [53] 0.21% | viability, T/C [54] 5.61% | viability, T/C [55] 7.36% | viability, T/C [56] 4.1% | viability, T/C [57] 0.72% | viability, T/C [58] 0.29% | viability, T/C [59] 0.22% | viability, T/C [60] 0.19%

O=C(C=Cc1cccc(S(=O)(=O)Nc2ccccc2)c1)NO + NC1CCC(NC2CC2c2ccccc2)CC1
active: viability, T/C [32] 3.51% | viability, T/C [33] 2.43% | viability, T/C [34] 1.81% | viability, T/C [35] 0.5% | viability, T/C [36] 0.09% | viability, T/C [38] 3.02% | viability, T/C [39] 8.25% | viability, T/C [40] 1.92% | viability, T/C [41] 1.26% | viability, T/C [42] 0.1% | viability, T/C [44] 3.31% | viability, T/C [45] 4.77% | viability, T/C [46] 1.92% | viability, T/C [47] 3.19% | viability, T/C [48] 5.1% | viability, T/C [50] 2.91% | viability, T/C [51] 4.81% | viability, T/C [52] 2.66% | viability, T/C [53] 0.27% | viability, T/C [54] 0.1% | viability, T/C [55] 9.56% | viability, T/C [56] 2.44% | viability, T/C [57] 2.03% | viability, T/C [58] 1.32% | viability, T/C [59] 0.15% | viability, T/C [60] 0.17%
inactive: viability, T/C [31] 15.1% | viability, T/C [37] 18.4% | viability, T/C [43] 17.3% | viability, T/C [49] 11.6%
> 8.02: pIC50 (second compound 0.1 µM) | pIC50 (second compound 0.316 µM) | pIC50 (second compound 1 µM) | pIC50 (second compound 3.16 µM) | pIC50 (second compound 10 µM)
